Our source for the MIC and IC50 values is ChEMBL document CHEMBL1144060, “Tetrin C, a new glycosylated polyene macrolide antibiotic produced by Streptomyces sp. GK9244” (J Nat Prod, 1999).

What is called MIC is the smallest concentration in the dilution series that meets the test's criterion for growth inhibition. Read a high MIC as a need for much substance. Broadly, the IC50 is the concentration at which inhibition is half-maximal. Read a low IC50 as greater potency in that assay.

One test deals with Umbelopsis ramanniana. The experiment in a line: Antifungal activity against Mortierella ramanniana. It counts as functional.
For another test, the system named is Penicillium chrysogenum. The experiment in a line: Antifungal activity against Penicillium chrysogenum. In kind it is functional.
The test system of a further test is Candida albicans. The experiment in a line: Antifungal activity against Candida albicans. In kind it is functional.
Another test deals with P388. The experiment in a line: Cytotoxicity against mouse P388 cells. It counts as functional, cell-based.

≈ marks a conversion by molar mass, not a printed value.

Turning to `C[C@H]1/C=C/C=C/C=C/C=C/[C@H](O[C@@H]2O[C@H](C)[C@@H](O)[C@H](N)[C@@H]2O)C[C@@H]2O[C@](O)(C[C@@H](O)CC(=O)C(=O)/C=C/C(=O)O[C@@H]1C)C[C@H](O)[C@H]2C(=O)O` [TETRIN C], the MIC against Umbelopsis ramanniana is 5 µg/mL (≈ 7.21 µM); in the test with Penicillium chrysogenum, 10 µg/mL (≈ 14.4 µM); with Candida albicans it was 10 µg/mL (≈ 14.4 µM). The midpoint of inhibition in the test on P388, the IC50, lay at 4.6 µg/mL (≈ 6.63 µM).
